Test [1] concerns human sarcoma cell line G-292 clone A141B1. The experiment in a line: Cell proliferation measurement in vitro (Cell Titer Glo, 72 h). Type of test: cell-based. As to conditions: G292, G-292 clone A141B1, 72 h, read-out: Anti-proliferation Target IC50. As to the method: The antiproliferative activity of the compounds of the general formula (I) was examined in vitro in the human sarcoma cell line G-292 clone A141B1 (from ATCC). For this purpose, the appropriate number of cells (1000) were plated in 384-well plates with appropriate growth medium McCoy's 5a Medium Modified, FCS 10% final (Biochrom; #S 0415); and incubated at 37° C. overnight. After 24 h, cells on one plate (0 h plate) were treated with 30 μl/cavity of CTG solution (Promega Cell Titer Glo (catalogue #G755B and G756B)) and incubated at room temperature for 10 min, and luminescence was measured by means of a VICTOR V (Perkin Elmer), in order to determine cell viability on commencement of treatment. The cells on the test plate were treated with a set of compounds of the general formula (I) as indicated below and incubated at 37° C. for 72 h. The compounds were added to the cells by means of an HP D300 digital dispenser in a 10-step 2.5-fold dilution series generally starting at a maximum final drug concentration of 100 nM. As control, the cells were treated with vehicle (DMSO at 0.3% final concentration). After 72 h, the cells were treated with 30 μl/cavity of CTG solution (Promega Cell Titer Glo (catalogue #G755B and G756B)) and incubated at room temperature for 10 min, and luminescence was measured by means of a VICTOR V (Perkin Elmer), in order to determine cell viability at the end of treatment. The percentage effect on cell growth and the IC50 derived therefrom were determined for each test substance using the values from the 0 h plate (=maximum inhibition) and the DMSO control (=minimum inhibition). The IC50 values were calculated using a 4-parameter fit.

Test [2] deals with sarcoma patient derived xenograft model SA3831 (Osteosarcoma). The experiment in a line: In vivo xenotransplantation model SA3831. Also on record: species or system mice. An excerpt:
(§1) The anti-tumor activities of (6S)-5-[4′-fluoro-2-(trifluoromethyl)biphenyl-4-yl]-6-methyl-3,6-dihydro-2H-1,3,4-oxadiazin-2-one was examined in murine xenotransplantation models of human cancer. For this purpose, mice were implanted subcutaneously with tumor pieces. At a mean tumor size of 20-40 mm^2 animals were randomized into treatment and control groups (at least n=10 animals/group) and treatment started with vehicle only or respective compound (formulation: 90% PEG400/10% Ethanol; application route: per os (“p.o.”), orally). The oral application volume was 10 ml/kg. In the case of twice daily treatments, the time interval between two applications per day was 6-7 h. The tumor size and the body weight were determined at least weekly. The tumor area was detected by means of an electronic caliper [length (mm)×width (mm)]. The experiment was ended when the study reached the pre-determined ethical endpoint based on German and European animal welfare regulations. In vivo anti-tumor efficacy is presented as T/C ratio at study end (Treatment/Control; mean tumor weight of treatment group/mean tumor weight of control group) in Table 2. A compound having a T/C below 0.5 is defined as active (i.e., effective). Statistical analysis was assessed using SigmaStat software. […]

Test [3] has as its system sarcoma patient derived xenograft model SA4058 (Synovial Sarcoma). The experiment in a line: In vivo xenotransplantation model SA4058. On the set-up: species or system mice.
From the text: as §1

In test [4] the test system is sarcoma patient derived xenograft model SA16044 (Soft Tissue Sarcoma). The test is described as follows: In vivo xenotransplantation model SA16044. Also on record: species or system mice. As to conditions: for T/C: SA16044 Soft Tissue Sarcoma PDX subcutaneous in mice, 10 mg/kg 2QD p.o., at study end. An excerpt:
The anti-tumor activities of (6S)-5-[4′-fluoro-2-(trifluoromethyl)biphenyl-4-yl]-6-methyl-3,6-dihydro-2H-1,3,4-oxadiazin-2-one was examined in murine xenotransplantation models of human cancer. For this purpose, mice were implanted subcutaneously with tumor pieces. At a mean tumor size of 20-40 mm^2 animals were randomized into treatment and control groups (at least n=10 animals/group) and treatment started with vehicle only or respective compound (formulation: 90% PEG400/10% Ethanol; application route: per os (“p.o.”), orally). The oral application volume was 10 ml/kg. In the case of twice daily treatments, the time interval between two applications per day was 6-7 h. The tumor size and the body weight were determined at least weekly. The tumor area was detected by means of an electronic caliper [length (mm)×width (mm)]. The experiment was ended when the study reached the pre-determined ethical endpoint based on German and European animal welfare regulations. In vivo anti-tumor efficacy is presented as T/C ratio at study end (Treatment/Control; mean tumor weight of treatment group/mean tumor weight of control group) in Table 2. A compound having a T/C below 0.5 is defined as active (i.e., effective). Statistical analysis was assessed using SigmaStat software. A one-way analysis of variance was performed and differences to the control were compared by a pair-wise comparison procedure (Dunn's method).
Patient-derived xenograft models established by direct transplantation of fresh human tumors are considered to more closely resemble the heterogeneity of the actual human tumor compared to xenograft models established from cell lines that have been cultured in vitro for decades. The anti-tumor activity of (6S)-5-[4′-fluoro-2-(trifluoromethyl)biphenyl-4-yl]-6-methyl-3,6-dihydro-2H-1,3,4-oxadiazin-2-one was assessed in patient-derived xenograft models of sarcoma, a tumor type consisting of many subtypes and a high medical need due to absence of approved targeted therapies. The tumor models are originating from CrownBio.

Test [5] deals with sarcoma patient derived xenograft model SA10199 (recurrent malignant solitary fibrous tumor). The test is described as follows: In vivo xenotransplantation model SA10199. On the set-up: species or system mice.
From the text: as §1

In test [6] the test system is sarcoma patient derived xenograft model SA10245 (Fibrous histiocytoma). The test is described as follows: In vivo xenotransplantation model SA10245. On the set-up: species or system mice.
From the text: as §1

Several values for one entry are separate records, joined by “and”; a condition that tells them apart may be missing. Equal values may be shown once. Entries after “also recorded” stand apart in the source; their conditions may differ.

Regarding `COCCCc1ccc(C2=NNC(=O)OC2)cc1C(F)(F)F` [Example 267, 5-[4-(3-Methoxypropyl)-3-(trifluoromethyl)phenyl]-3,6-dihydro-2H-1,3,4-oxadiazin-2-one], the IC50 in test [1] came to 0.0168 µM. Still for that read-out and setting: with `O=C1NN=C(c2ccc(N3CCC(F)(F)CC3)c(F)c2)CO1` [Example 1, 5-[4-(4,4-Difluoropiperidin-1-yl)-3-fluorophenyl]-3,6-dihydro-2H-1,3,4-oxadiazin-2-one] the figure was 0.026 µM; with `CC(C)(C)CCc1ccc(C2=NNC(=O)OC2)cc1C(F)(F)F` [Example 269, 5-[4-(3,3-Dimethylbutyl)-3-(trifluoromethyl)phenyl]-3,6-dihydro-2H-1,3,4-oxadiazin-2-one], 0.0857 µM.

On to `Cc1ccc(C2=NNC(=O)OC2)cc1C(F)(F)F` [Example 139, 5-[4-Methyl-3-(trifluoromethyl)phenyl]-3,6-dihydro-2H-1,3,4-oxadiazin-2-one], for which the IC50 in test [1] stood at 0.193 µM.

`C[C@@H]1OC(=O)NN=C1c1ccc(-c2ccc(F)cc2)c(C(F)(F)F)c1` [Example 135, (6S)-5-[4'-Fluoro-2-(trifluoromethyl)biphenyl-4-yl]-6-methyl-3,6-dihydro-2H-1,3,4-oxadiazin-2-one]: in test [1], the IC50 came to 0.0176 µM. Also, the T/C was 0.01 in test [2] (SA3831 Osteosarcoma PDX subcutaneous in mice, 10 mg/kg 2QD p.o., at study end); 0.12 in test [3] (SA4058 Synovial Sarcoma PDX subcutaneous in mice, 10 mg/kg 2QD p.o., at study end); 0.33 in test [4] (listed as (6S)-5-[4'-fluoro-2-(trifluoromethyl)biphenyl-4-yl]-6-methyl-3,6-dihydro-2H-1,3, 10 mg/kg); 0.35 and 0.33 in test [4] (listed as (6S)-5-[4′-fluoro-2-(trifluoromethyl)biphenyl-4-yl]-6-methyl-3,6-dihydro-2H-1,3, 10 mg/kg); 0.34 in test [5] (SA10199 Sarcoma (recurrent malignant solitary fibrous tumor) PDX subcutaneous in mice, 10 mg/kg 2QD p.o., at study end, listed as (6S)-5-[4'-fluoro-2-(trifluoromethyl)biphenyl-4-yl]-6-methyl-3,6-dihydro-2H-1,3, 10 mg/kg); 0.73 in test [6] (SA10245 Fibrous histiocytoma PDX subcutaneous in mice, 10 mg/kg 2QD p.o., at study end). In addition, the “anti-tumor efficacy (in words)” value in test [2] (SA3831 PDX in mice, versus vehicle, unpaired t-test) is recorded as “strong tumor-growth inhibition; also recorded: significant anti-tumor efficacy”; in test [3] (SA4058 PDX in mice, versus vehicle, unpaired t-test), “significant anti-tumor efficacy; also recorded: strong tumor-growth inhibition”; in test [4] (SA16044 PDX in mice, versus vehicle, unpaired t-test), “significant anti-tumor efficacy; also recorded: moderate tumor-growth inhibition”; in test [5] (SA10199 PDX in mice, versus vehicle, unpaired t-test), “significant anti-tumor efficacy; also recorded: moderate tumor-growth inhibition”; in test [6] (SA10245 PDX in mice, versus vehicle, unpaired t-test), “non-significant signs of anti-tumor efficacy; also recorded: least sensitive model”. As to `O=C1NN=C(c2ccc(N3CCOCC3)c(F)c2)CO1` [Example 4, 5-[3-Fluoro-4-(morpholin-4-yl)phenyl]-3,6-dihydro-2H-1,3,4-oxadiazin-2-one], in test [1], the IC50 amounted to 0.103 µM. Still for that read-out and setting: with `O=C1NN=C(c2ccc(-c3cnn(C(F)F)c3)c(C(F)(F)F)c2)CO1` [Example 146, 5-{4-[1-(Difluoromethyl)-1H-pyrazol-4-yl]-3-(trifluoromethyl)phenyl}-3,6-dihydro-2H-1,3,4-oxadiazin-2-one] the figure was 0.0125 µM; with `C[C@@H]1OC(=O)NN=C1c1ccc(N2CCN(C)CC2)c(C(F)(F)F)c1` [Example 277, (6S)-6-Methyl-5-[4-(4-methylpiperazin-1-yl)-3-(trifluoromethyl)phenyl]-3,6-dihydro-2H-1,3,4-oxadiazin-2-one], 0.604 µM; with `C[C@@H]1OC(=O)NN=C1c1ccc(-n2ccc(C(F)(F)F)n2)c(C(F)(F)F)c1` [Example 265, (6S)-6-Methyl-5-{3-(trifluoromethyl)-4-[3-(trifluoromethyl)-1H-pyrazol-1-yl]phenyl}-3,6-dihydro-2H-1,3,4-oxadiazin-2-one], 0.0372 µM. Consider `Cc1cc(C2=NNC(=O)OC2)ccc1-c1ccc(F)cc1` [Example 7, 5-(4'-Fluoro-2-methylbiphenyl-4-yl)-3,6-dihydro-2H-1,3,4-oxadiazin-2-one], for which, in test [1], the IC50 was 0.0496 µM. Same read-out and setting: the value for `O=C1NN=C(c2ccc(-c3ccc(F)cc3)c(C(F)(F)F)c2)CO1` [Example 3, 5-[4'-Fluoro-2-(trifluoromethyl)biphenyl-4-yl]-3,6-dihydro-2H-1,3,4-oxadiazin-2-one] was 0.0382 µM; that for `O=C1NN=C(c2ccc(-c3ccc(C(F)F)cc3)c(F)c2)CO1` [Example 92, 5-[4'-(Difluoromethyl)-2-fluoro[1,1'-biphenyl]-4-yl]-3,6-dihydro-2H-1,3,4-oxadiazin-2-one] was 0.0351 µM; that for `Cc1cc(C2=NNC(=O)OC2)ccc1-c1ccc(F)c(F)c1` [Example 8, 5-(3',4'-Difluoro-2-methylbiphenyl-4-yl)-3,6-dihydro-2H-1,3,4-oxadiazin-2-one] was 0.0968 µM.

For the origin of these results see US20230405015A1, “SUBSTITUTED 3,6-DIHYDRO-2H-1,3,4-OXADIAZIN-2-ONES FOR THE TREATMENT OF SARCOMA” (Bayer Aktiengesellschaft, priority 2021, published 2023).
